Measured values as given in ChEMBL document CHEMBL1201862, “PubChem BioAssay data set” (2004).
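Results reflect a 48-hour exposure of cells in 96-well plates to compound at five concentrations. At the GI50, growth is halved.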 Activity calls are given as the source filed them. Rule as the data show it: active = GI50 up to about 1.1 µM and inactive = higher. *1 amine or outer side, *2 acyl side, *3 side chain or, on linkers, in order; H or OH if unused. Where a SMILES comes first, the peptide text is derived from it. Bridges are numbered along the chain shown (N, C = ends). [ ]: non-standard residue; d: D form. The star is where a group is joined. ξ: configuration not given here. ξOrn(4,5-diOH) = O=C(C(CC(O)C(O)N[*:3])N[*:1])[*:2]; ξhTyr(βξ-OH,γξ-OH) = NC(C(=O)O)C(O)C(O)c1ccc(O)cc1; ξPro(3ξ-OH,4ξ-Me) = CC1CNC(C(=O)O)C1O; X55 = CCCCC/C=C/C/C=C\CCCCCCCC(=O)*; Hyp = O=C(O)[CH]1C[CH](O)CN1

Tests used:
Test in all cases: NCI tumour cell line growth inhibition, 48 h
[1] = test system: MOLT-4
[2] = test system: COLO 205
[3] = test system: LOX IMVI
[4] = test system: RXF 393
[5] = test system: SF-295
[6] = test system: 786-0
[7] = test system: KM12
[8] = test system: UACC-62
[9] = test system: NCI/ADR-RES
[10] = test system: Hs-578T
[11] = test system: ACHN
[12] = test system: Malme-3M
[13] = test system: UO-31
[14] = test system: MDA-MB-231
[15] = test system: U-251
[16] = test system: HCT-15
[17] = test system: SNB-75
[18] = test system: SK-MEL-28
[19] = test system: HL-60
[20] = test system: MCF7

Structure (SMILES) | GI50 [1] | GI50 [2] | GI50 [3] | GI50 [4] | GI50 [5] | GI50 [6] | GI50 [7] | GI50 [8] | GI50 [9] | GI50 [10] | GI50 [11] | GI50 [12] | GI50 [13] | GI50 [14] | GI50 [15] | GI50 [16] | GI50 [17] | GI50 [18] | GI50 [19] | GI50 [20]
Cn1c(N=[N+]=[N-])cc(=O)n(C)c1=O | > 100 µM (inactive) | > 100 µM (inactive) | > 100 µM (inactive) | > 100 µM (inactive) | > 100 µM (inactive) | > 100 µM (inactive) | > 100 µM (inactive) | > 100 µM (inactive) | > 100 µM (inactive) | > 100 µM (inactive) | > 100 µM (inactive) | > 100 µM (inactive) | > 100 µM (inactive) | > 100 µM (inactive) | > 100 µM (inactive) | > 100 µM | – | – | – | –
c1ccc2c(c1)SCCCS2 | > 100 µM (inactive) | > 100 µM (inactive) | > 100 µM (inactive) | – | > 100 µM (inactive) | > 100 µM (inactive) | > 100 µM (inactive) | > 100 µM (inactive) | > 100 µM (inactive) | – | – | – | > 100 µM (inactive) | > 100 µM (inactive) | > 100 µM (inactive) | > 100 µM | > 100 µM (inactive) | > 100 µM (inactive) | > 100 µM (inactive) | > 100 µM (inactive)
CCCCC/C=C/C/C=C\CCCCCCCC(=O)NC1CC(O)C(O)NC(=O)C2C(O)C(C)CN2C(=O)C(C(C)O)NC(=O)C(C(O)C(O)c2ccc(O)cc2)NC(=O)C2CC(O)CN2C(=O)C(C(C)O)NC1=O (stereo not drawn) (X55-[ξOrn(4,5-diOH)]T[Hyp][ξhTyr(βξ-OH,γξ-OH)]T[ξPro(3ξ-OH,4ξ-Me)]; lactam 1-C; configuration not given here) | > 100 µM (inactive) | > 100 µM (inactive) | > 100 µM (inactive) | – | > 100 µM (inactive) | > 100 µM (inactive) | > 100 µM (inactive) | > 100 µM (inactive) | > 100 µM (inactive) | > 100 µM (inactive) | > 100 µM (inactive) | – | > 100 µM (inactive) | > 100 µM (inactive) | > 100 µM (inactive) | > 100 µM | > 100 µM (inactive) | > 100 µM (inactive) | > 100 µM (inactive) | –
CC(C)=NN/C(=N\c1ccc(Cl)cc1)NS(=O)(=O)c1cc(Cl)c(Oc2ccc([N+](=O)[O-])cc2Cl)c(Cl)c1 | 25.4 µM (inactive) | > 100 µM (inactive) | > 100 µM (inactive) | – | 86.1 µM (inactive) | > 100 µM (inactive) | > 100 µM (inactive) | > 100 µM (inactive) | > 100 µM (inactive) | 81.7 µM (inactive) | – | 70 µM (inactive) | 56.8 µM (inactive) | 60.1 µM (inactive) | > 100 µM (inactive) | > 100 µM | – | > 100 µM (inactive) | > 100 µM (inactive) | > 100 µM (inactive)
CC(C)[C@H](C)/C=C/[C@@H](C)C1CC[C@H]2[C@@]34C=C[C@]5(C[C@@H](O)CC[C@]5(C)[C@H]3CC[C@]12C)OO4 (some centres undefined) | 28.6 µM (inactive) | 31 µM (inactive) | 17.7 µM (inactive) | 44.5 µM (inactive) | 32.7 µM (inactive) | 20.4 µM (inactive) | 31 µM (inactive) | 17.1 µM (inactive) | 19.1 µM (inactive) | – | 37.4 µM (inactive) | – | 37.3 µM (inactive) | 25.5 µM (inactive) | 24.3 µM (inactive) | 32.8 µM | 30.3 µM (inactive) | 34 µM (inactive) | 17.2 µM (inactive) | 31.9 µM (inactive)
O=c1cc(NNc2cccc(F)c2)[nH]c(=S)[nH]1 | – | 77.1 µM (inactive) | 49.3 µM (inactive) | – | > 100 µM (inactive) | 44.3 µM (inactive) | 96.8 µM (inactive) | – | > 100 µM (inactive) | > 100 µM (inactive) | > 100 µM (inactive) | > 100 µM (inactive) | > 100 µM (inactive) | > 100 µM (inactive) | 54.6 µM (inactive) | 54.1 µM | – | > 100 µM (inactive) | 71.9 µM (inactive) | 61.5 µM (inactive)
CC1=NNC(=O)C1C(CC(=O)c1c[nH]c2ccccc12)C(=O)O (centres undefined) | 49 µM (inactive) | 64.7 µM (inactive) | 97.3 µM (inactive) | > 100 µM (inactive) | > 100 µM (inactive) | > 100 µM (inactive) | 30.1 µM (inactive) | > 100 µM (inactive) | > 100 µM (inactive) | > 100 µM (inactive) | > 100 µM (inactive) | > 100 µM (inactive) | 64.3 µM (inactive) | > 100 µM (inactive) | > 100 µM (inactive) | 92.9 µM | > 100 µM (inactive) | > 100 µM (inactive) | 74.5 µM (inactive) | –
COc1ccc(N[S+]([O-])c2c(C)cc(C)cc2C)cc1 (centres undefined) | 40.1 µM (inactive) | > 100 µM (inactive) | 57 µM (inactive) | – | > 100 µM (inactive) | 89.5 µM (inactive) | 22.5 µM (inactive) | 33.7 µM (inactive) | 49.8 µM (inactive) | 34.4 µM (inactive) | 43.7 µM (inactive) | 20.3 µM (inactive) | 18.2 µM (inactive) | 80.2 µM (inactive) | 50 µM (inactive) | 18.2 µM | – | > 100 µM (inactive) | 33 µM (inactive) | 56 µM (inactive)
C=CCOCn1cc(C)c(=O)[nH]c1=O | > 100 µM (inactive) | > 100 µM (inactive) | > 100 µM (inactive) | – | > 100 µM (inactive) | > 100 µM (inactive) | > 100 µM (inactive) | > 100 µM (inactive) | – | > 100 µM (inactive) | > 100 µM (inactive) | > 100 µM (inactive) | > 100 µM (inactive) | > 100 µM (inactive) | – | > 100 µM | > 100 µM (inactive) | > 100 µM (inactive) | > 100 µM (inactive) | > 100 µM (inactive)
O=C1OC(c2ccccc2)N(C(=O)c2ccccc2)C1Cc1ccc(OCc2ccccc2)cc1 (centres undefined) | – | > 100 µM (inactive) | 8.11 µM (inactive) | – | – | 33.1 µM (inactive) | – | 8.11 µM (inactive) | 19.9 µM (inactive) | 35.6 µM (inactive) | 6.82 µM (inactive) | – | 21.1 µM (inactive) | 2.6 µM (inactive) | > 100 µM (inactive) | > 100 µM | 15.7 µM (inactive) | > 100 µM (inactive) | 9.89 µM (inactive) | 5.48 µM (inactive)
COc1ccc(NCn2nc(CCCCCCCCc3nn(CNc4ccc(OC)cc4)c(=S)o3)oc2=S)cc1 | > 100 µM (inactive) | > 100 µM (inactive) | – | > 100 µM (inactive) | > 100 µM (inactive) | > 100 µM (inactive) | > 100 µM (inactive) | > 100 µM (inactive) | > 100 µM (inactive) | – | > 100 µM (inactive) | > 100 µM (inactive) | > 100 µM (inactive) | > 100 µM (inactive) | > 100 µM (inactive) | > 100 µM | > 100 µM (inactive) | > 100 µM (inactive) | – | > 100 µM (inactive)
CO/C(=N\N=C\c1ccc(C(F)(F)F)cc1)c1ccncc1 | > 10 µM (inactive) | > 10 µM (inactive) | > 10 µM (inactive) | > 10 µM (inactive) | > 10 µM (inactive) | > 10 µM (inactive) | > 10 µM (inactive) | – | > 10 µM (inactive) | – | > 10 µM (inactive) | > 10 µM (inactive) | > 10 µM (inactive) | > 10 µM (inactive) | > 10 µM (inactive) | > 10 µM | – | – | > 10 µM (inactive) | > 10 µM (inactive)
NC(N)=NCc1ccc2c(c1)OCO2 | > 100 µM (inactive) | – | > 100 µM (inactive) | 55.3 µM (inactive) | 67 µM (inactive) | 50.1 µM (inactive) | 50 µM (inactive) | > 100 µM (inactive) | > 100 µM (inactive) | > 100 µM (inactive) | 65.5 µM (inactive) | 31.1 µM (inactive) | > 100 µM (inactive) | 95.3 µM (inactive) | > 100 µM (inactive) | > 100 µM | > 100 µM (inactive) | 67.3 µM (inactive) | 60.3 µM (inactive) | –
O=C(CCN1CCCCC1CCO)Nc1ccc2c(c1)C(=O)c1ccc(NC(=O)CCN3CCCCC3CCO)cc1C2=O (centres undefined) | 4.25 µM (inactive) | 2.11 µM (inactive) | 2.99 µM (inactive) | 2.12 µM (inactive) | 16.7 µM (inactive) | 1.97 µM (inactive) | 2.54 µM (inactive) | 2.44 µM (inactive) | – | – | 7.93 µM (inactive) | 2.64 µM (inactive) | > 100 µM (inactive) | – | 4.08 µM (inactive) | 11.2 µM | 2.81 µM (inactive) | 10.1 µM (inactive) | 3.24 µM (inactive) | –
CCCCCC[C@H]1CC(=O)C2CCCC[C@@]23CC[C@H](CCl)N13.CCCCCC[C@H]1CC(=O)C2CCCC[C@@]23C[C@H](Cl)CN13 (some centres undefined) | 10 µM (inactive) | 10 µM (inactive) | – | – | 51.2 µM (inactive) | > 100 µM (inactive) | 49.8 µM (inactive) | 48.1 µM (inactive) | – | 8.53 µM (inactive) | 53.5 µM (inactive) | 55.3 µM (inactive) | 24.3 µM (inactive) | 84.5 µM (inactive) | 29.6 µM (inactive) | 60.3 µM | 27.8 µM (inactive) | 38.1 µM (inactive) | 21.8 µM (inactive) | 40.1 µM (inactive)
Nc1nc(-c2ccco2)cc(-c2ccco2)n1 | > 100 µM (inactive) | > 100 µM (inactive) | > 100 µM (inactive) | > 100 µM (inactive) | > 100 µM (inactive) | > 100 µM (inactive) | > 100 µM (inactive) | > 100 µM (inactive) | – | – | > 100 µM (inactive) | > 100 µM (inactive) | 42.7 µM (inactive) | – | > 100 µM (inactive) | > 100 µM | 64.1 µM (inactive) | > 100 µM (inactive) | > 100 µM (inactive) | –
